Laboratory results as given in patent US11414422B2, “Substituted pyrido[4,3-b]indoles and azepino[4,5-b]indoles as inhibitors of cGAS” (The Rockefeller University, priority 2018, dated 2022).

Target: T1, h-cGAS (Homo sapiens, UniProt Q8N884)
T1 construct: The final concentration of full-length h-cGAS, dsDNA, ATP, and GTP were 100 nM
Assay: cGAS biochemical assay, RapidFire 365 mass spectrometry (RF-MS)
Settings: full-length h-cGAS 100 nM, dsDNA 25 nM, ATP and GTP 100 μM, 7 h at RT

T1 sequence (Q8N884 whole entry): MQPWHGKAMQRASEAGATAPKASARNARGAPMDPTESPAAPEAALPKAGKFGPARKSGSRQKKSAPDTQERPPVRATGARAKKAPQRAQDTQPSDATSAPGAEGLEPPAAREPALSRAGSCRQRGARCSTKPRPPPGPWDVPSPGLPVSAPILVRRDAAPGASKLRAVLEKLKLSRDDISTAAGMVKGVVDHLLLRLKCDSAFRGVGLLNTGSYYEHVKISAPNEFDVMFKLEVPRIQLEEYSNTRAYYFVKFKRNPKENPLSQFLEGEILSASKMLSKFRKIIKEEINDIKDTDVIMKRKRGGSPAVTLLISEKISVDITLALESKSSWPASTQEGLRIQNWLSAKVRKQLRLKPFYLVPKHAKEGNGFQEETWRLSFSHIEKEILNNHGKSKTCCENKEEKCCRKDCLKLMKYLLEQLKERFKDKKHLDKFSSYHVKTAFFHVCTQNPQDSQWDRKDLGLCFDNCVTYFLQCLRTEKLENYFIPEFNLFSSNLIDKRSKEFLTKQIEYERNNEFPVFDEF

Row | Structure (SMILES) | IC50
1 | C[C@@H]1CCN(c2cc(Cl)c(F)c3[nH]c4c(c23)CN(C(=O)CO)CC4)C1 [TDI-008862] | 478 nM
2 | COCC(=O)N1CCc2[nH]c3c(Br)c(Cl)ccc3c2C1 [TDI-005776] | 203 nM
3 | O=C(CO)N1CCc2[nH]c3c(Cl)c(Cl)cc(CN4CCCCC4)c3c2C1 [TDI-008441] | 5220 nM
4 | Cc1nn(C)cc1-c1cc(Cl)c(Cl)c2[nH]c3c(c12)CN(C(=O)CO)CC3 [TDI-008092] | 1840 nM
5 | C=Cc1ccc2c3c([nH]c2c1F)CCN(C(=O)CO)C3 [TDI-006923] | 19300 nM
6 | O=C(CO)N1CCc2[nH]c3c(Cl)c(F)ccc3c2C1 [TDI-006359] | 440 nM
7 | Cc1c(-c2cc(Cl)c(Cl)c3[nH]c4c(c23)CN(C(=O)CO)CC4)cnn1C [TDI-008094] | 371 nM
8 | O=C(CO)N1CCc2[nH]c3c(Cl)c(Cl)cc(-c4cnc(C(F)(F)F)nc4)c3c2C1 [TDI-008451] | 9780 nM
9 | O=C(CO)N1CCc2[nH]c3c(Br)c(Cl)ccc3c2C1 [TDI-006261] | 140 nM
10 | O=C(CO)N1CCc2[nH]c3c(Cl)c(Cl)cc(CN4CCOCC4)c3c2C1 [TDI-008442] | 706 nM
11 | O=C(CO)N1CCc2[nH]c3c(Cl)c(Cl)cc(Cc4ccc(-n5cccn5)cc4)c3c2C1 [TDI-008443] | 586 nM
12 | Cc1cc(-c2cc(Cl)c(Cl)c3[nH]c4c(c23)CN(C(=O)CO)CC4)nn1C [TDI-008093] | 330 nM
13 | COCC(=O)N1CCc2c(c3ccc(Br)c(F)c3n2C)C1 [TDI-008034] | 401 nM
14 | CCn1c2c(c3ccc(Br)c(F)c31)CN(C(=O)CO)CC2 [TDI-008062] | 1030 nM
15 | COCC(=O)N1CCc2[nH]c3c(Cl)cc(Cl)cc3c2C1 [TDI-004576] | 3080 nM
16 | CCOCC(=O)N1CCc2[nH]c3c(Cl)c(Cl)ccc3c2C1 [TDI-005716] | 1510 nM
17 | COCC(=O)N1CCc2[nH]c3c(C#N)c(Cl)ccc3c2C1 [TDI-006182] | 570 nM
18 | Cn1c(=O)[nH]c2cc(-c3cc(Cl)c(Cl)c4[nH]c5c(c34)CN(C(=O)CO)CC5)ccc21 [TDI-008461] | 344 nM
19 | O=C(CO)N1CCc2[nH]c3c(Cl)c(Cl)cc(-c4cncc(C(F)(F)F)c4)c3c2C1 [TDI-008455] | 154 nM
20 | COc1cc(-c2cc(Cl)c(Cl)c3[nH]c4c(c23)CN(C(=O)CO)CC4)ccn1 [TDI-008106] | 49.3 nM
21 | COc1ncc(-c2cc(Cl)c(Cl)c3[nH]c4c(c23)CN(C(=O)CO)CC4)cn1 [TDI-008112] | 201 nM
22 | N#Cc1ccc2c3c([nH]c2c1C#N)CCN(C(=O)CO)C3 [TDI-006932] | > 25000 nM

Row | Structure (SMILES) | IC50
23 | O=C(C1CCCO1)N1CCc2[nH]c3c(Cl)c(Cl)ccc3c2C1 (stereo not shown) [TDI-005745] | 3080 nM
24 | COc1cccc(-c2cc(Cl)c(Cl)c3[nH]c4c(c23)CN(C(=O)CO)CC4)n1 [TDI-008102] | 40.2 nM
25 | COCC(=O)N1CCc2c(c3c(-c4cn[nH]c4)cc(Cl)c(Cl)c3n2C)C1 [TDI-008026] | 203 nM
26 | Nc1ncccc1-c1cc(Cl)c(Cl)c2[nH]c3c(c12)CN(C(=O)CO)CC3 [TDI-008086] | 2050 nM
27 | COCC(=O)N1CCc2[nH]c3c(Cl)c(C#N)ccc3c2C1 [TDI-006171] | 7690 nM
28 | Cc1c(Cl)ccc2c3c([nH]c12)CCN(C(=O)CO)C3 [TDI-006360] | 327 nM
29 | Cc1ncccc1-c1cc(Cl)c(Cl)c2[nH]c3c(c12)CN(C(=O)CO)CC3 [TDI-008446] | 901 nM
30 | CNc1ncc(-c2cc(Cl)c(Cl)c3[nH]c4c(c23)CN(C(=O)CO)CC4)cn1 [TDI-008111] | 268 nM
31 | O=C(CO)N1CCc2[nH]c3c(Cl)c(Cl)cc(-c4ccccc4F)c3c2C1 [TDI-008090] | 26.7 nM
32 | C#Cc1ccc2c3c([nH]c2c1F)CCN(C(=O)CO)C3 [TDI-007433] | 1450 nM
33 | COCC(=O)N1CCc2[nH]c3c(Cl)c(Br)ccc3c2C1 [TDI-005854] | 198 nM
34 | COCC(=O)N1CCc2[nH]c3c(OC)c(Cl)ccc3c2C1 [TDI-005777] | 24700 nM
35 | O=C(CO)N1CCc2[nH]c3c(Cl)c(Cl)cc(-c4ccccc4O)c3c2C1 [TDI-008084] | 258 nM
36 | O=C(CO)N1CCc2[nH]c3c(Cl)c(Cl)cc(-c4ccsc4)c3c2C1 [TDI-008080] | 66.8 nM
37 | O=C(CO)N1CCc2[nH]c3c(Cl)c(Cl)cc(-c4ccc5c(c4)OCO5)c3c2C1 [TDI-008457] | 44.6 nM
38 | COc1cncc(-c2cc(Cl)c(Cl)c3[nH]c4c(c23)CN(C(=O)CO)CC4)c1 [TDI-008107] | 52.4 nM
39 | COc1cc2c3c([nH]c2c(Cl)c1Cl)CCN(C(=O)CO)C3 [TDI-006528] | 31 nM
40 | O=C(CO)N1CCc2[nH]c3c(Cl)c(Cl)cc(CC4CCCC4)c3c2C1 [TDI-008439] | 663 nM
41 | CN(C)c1cccc(-c2cc(Cl)c(Cl)c3[nH]c4c(c23)CN(C(=O)CO)CC4)c1 [TDI-008120] | 438 nM
42 | CC(=O)Nc1cc(Cl)c(F)c2[nH]c3c(c12)CN(C(=O)CO)CC3 [TDI-008522] | 365 nM
43 | COCC(=O)N1CCc2[nH]c3c(Cl)ccc(Cl)c3c2C1 [TDI-005325] | 3230 nM
44 | Cc1ncc(-c2cc(Cl)c(Cl)c3[nH]c4c(c23)CN(C(=O)CO)CC4)cn1 [TDI-008088] | 56.9 nM

Row | Structure (SMILES) | IC50
45 | O=C(CO)N1CCc2[nH]c3c(F)c(Cl)c(N4CCC4)cc3c2C1 [TDI-007560] | 6740 nM
46 | COCC(=O)N1CCc2c(c3cc(Cl)cc(Cl)c3n2C)C1 [TDI-004581] | 2410 nM
47 | O=C(CO)N1CCc2[nH]c3c(F)c(Cl)ccc3c2C1 [TDI-006340] | 129 nM
48 | COc1cnccc1-c1cc(Cl)c(Cl)c2[nH]c3c(c12)CN(C(=O)CO)CC3 [TDI-008109] | 2330 nM
49 | Cn1c2c(c3ccc(Br)c(F)c31)CN(C(=O)CO)CC2 [TDI-008061] | 131 nM
50 | N#Cc1ccccc1-c1cc(Cl)c(Cl)c2[nH]c3c(c12)CN(C(=O)CO)CC3 [TDI-008097] | 42.2 nM
51 | O=C(CO)N1CCc2[nH]c3c(Cl)c(Cl)cc(CN4CCCC4)c3c2C1 [TDI-008440] | 2230 nM
52 | O=C(CO)N1CCc2[nH]c3c(Cl)c(Cl)cc(-c4cncc(CO)c4)c3c2C1 [TDI-008450] | 54.5 nM
53 | Nc1ccccc1-c1cc(Cl)c(Cl)c2[nH]c3c(c12)CN(C(=O)CO)CC3 [TDI-008082] | 322 nM
54 | O=C(CO)N1CCc2[nH]c3c(Cl)c(Cl)cc(-c4ccn(C(F)F)n4)c3c2C1 [TDI-008474] | 18 nM
55 | O=C(CO)N1CCc2[nH]c3c(Cl)c(Cl)cc(-c4cnn(C(F)F)c4)c3c2C1 [TDI-008115] | 45.1 nM
56 | O=C(CO)N1CCc2[nH]c3c(Cl)c(Cl)cc(-c4ccoc4)c3c2C1 [TDI-008069] | 84.8 nM
57 | Cc1cc(-c2cc(Cl)c(Cl)c3[nH]c4c(c23)CN(C(=O)CO)CC4)n(C)n1 [TDI-008095] | 929 nM
58 | O=C(CO)N1CCc2[nH]c3c(F)c(Cl)c(F)cc3c2C1 [TDI-007544] | 166 nM
59 | COCC(=O)N1CCc2c(c3cc(Cl)cc(Cl)c3n2CC(F)(F)F)C1 [TDI-005021] | 13900 nM
60 | O=C(CO)N1CCc2[nH]c3c(Cl)c(Cl)cc(-c4cncc(F)c4)c3c2C1 [TDI-008448] | 25.9 nM
61 | CN(C)Cc1cc(Cl)c(Cl)c2[nH]c3c(c12)CN(C(=O)CO)CC3 [TDI-008437] | 350 nM
62 | O=C(CO)N1CCc2[nH]c3c(Cl)c(Cl)cc(-c4ccncc4)c3c2C1 [TDI-008072] | 97.5 nM
63 | O=C(CO)N1CCc2[nH]c3c(Cl)c(Cl)cc(-c4ccc(F)cc4)c3c2C1 [TDI-008089] | 64.4 nM
64 | COCCOCC(=O)N1CCc2[nH]c3c(Cl)c(Cl)ccc3c2C1 [TDI-005719] | 3290 nM
